pIC50: −log10 of the molar value. Where two headings read alike, the source gives them in different places.
Assays:
Type in all cases: cell-based
[1] = tested on: human platelets (arachidonic acid-induced aggregation); experiment: inhibition of arachidonic acid-induced platelet aggregation, human platelet-rich plasma; details: arachidonic acid 100-300 μM; for pIC50: read-out: IC50 platelet aggregation; for IC50: read-out: pIC50 platelet aggregation (converted)
Protocol: (§1) The antiaggregatory and antisecretory activity on human platelets was determined by evaluating the in vitro aggregation and [^14 C]serotonin secretion in human platelet preparations. Blood was taken by venipuncture from normal human volunteers who were reported to be free of medication for at least 10 days before blood drawing. Venous blood samples were mixed with acid-citrate dextrose solution (9:1) and centrifuged at 120×g for 15 minutes at room temperature to obtain platelet-rich plasma, PRP, (Huzoor-Akbar et al., Biochem. Pharmacol., 30: 2013-2020, 1981). The PRP was transferred to polypropylene tubes and stored under an atmosphere of 8% CO2. The remaining blood was centrifuged at 1000×g for 10 minutes to obtain platelet-poor plasma. […] Platelet counts varied between 280,000 to 320,000 per cmm or were adjusted to 300,000 per cmm for the aggregation and secretion experiments. All studies were conducted within 2 hours after PRP recovery.
(§2) For aggregation studies, 0.5 ml of PRP was incubated with drug or vehicle (1-5 μl) for 1 minute at 37° C. before the initiation of aggregation with inducers. […] In all experiments, the minimum concentration of inducer (adenosine diphosphate ADP; epinephrine, E; 15S-hydroxy-11α,9α-epoxymethanoprosta-5Z,13E-dienoic acid, U46619; collagen; and arachidonic acid, AA) which caused maximal irreversible aggregation within each PRP preparation was used. Aggregation was monitored for 4 to 6 minutes after the addition of an inducer and data were presented as a percentage inhibition of either slope or maximal light transmittance changes in the presence of varying drug concentrations.

[2] = tested on: human platelets (arachidonic acid-induced serotonin secretion); experiment: inhibition of arachidonic acid-induced serotonin secretion, human platelet-rich plasma; details: arachidonic acid 100-300 μM; for pIC50: read-out: IC50 serotonin secretion; for IC50: read-out: pIC50 serotonin secretion (converted)
Protocol: as §1, §2
(§3) Secretion data were calculated as the net increase of serotonin released into the supernatant by each inducer and expressed as a percentage of the total radioactivity in platelets Mayo et al., Biochem. Pharmacol., 30: 2237-2241, 1981. The effect of compounds on serotonin release was expressed as the percentage of inhibition of the maximum release by each inducer and plotted against the log molar concentrations of each agent.

[3] = tested on: human platelets (collagen-induced aggregation); experiment: inhibition of collagen-induced platelet aggregation, human platelet-rich plasma; details: collagen 10-100 μg/ml; for pIC50: read-out: IC50 platelet aggregation; for IC50: read-out: pIC50 platelet aggregation (converted)
Protocol: as §1, §2

[4] = tested on: human platelets (collagen-induced serotonin secretion); experiment: inhibition of collagen-induced serotonin secretion, human platelet-rich plasma; details: collagen 10-100 μg/ml; for pIC50: read-out: IC50 serotonin secretion; for IC50: read-out: pIC50 serotonin secretion (converted)
Protocol: as §1, §2, §3

[5] = tested on: human platelets (ADP-induced aggregation); experiment: inhibition of the secondary phase of ADP-induced platelet aggregation, human platelet-rich plasma; details: ADP 1-3 μM; for pIC50: read-out: IC50 platelet aggregation (secondary phase); for IC50: read-out: pIC50 platelet aggregation (secondary phase) (converted)
Protocol: as §1, §2

Row | Structure (SMILES) | pIC50 [1] | IC50 [1] | pIC50 [2] | IC50 [2] | pIC50 [3] | IC50 [3] | pIC50 [4] | IC50 [4] | pIC50 [5] | IC50 [5]
1 | COc1cc(CC2NCCc3c2cc(O)c(O)c3F)cc(OC)c1OC (centres unmarked) [Compound 5-F-TMQ, 5-fluoro-trimetoquinol] | 4.11 | 77.6 µM | 4.26 | 55 µM | 4.29 | 51.3 µM | 4.88 | 13.2 µM | 4.82 | 15.1 µM
2 | COc1cc(CC2NCCc3cc(O)c(O)c(F)c32)cc(OC)c1OC (centres unmarked) [Compound 8-F-TMQ, 8-fluoro-trimetoquinol] | 4.58 | 26.3 µM | 4.66 | 21.9 µM | 5.01 | 9.77 µM | 5.12 | 7.59 µM | 5.19 | 6.46 µM

Reference: patent US4737504A, “5-fluoro-and 8-fluoro-trimetoquinol compounds and the processes for their preparation” (priority 1986, dated 1988)
